Values joined by “and” are separate entries in the source; they are usually repeats but may differ in a detail not shown here. Equal entries are not always repeated. Inconclusive results and toxic doses are left out. Rule as the data show it: active = T/C of 150% or more; inactive = T/C below 125%.
Tested on: L1210 leukemia ip in BDF1 mice, survival T/C
Assay: NCI In Vivo Anticancer Drug Screen. Data for tumor model L1210 Leukemia (intraperitoneal) in B6D2F1 (BDF1) mice
Conditions: endpoint: mean survival time, higher = longer survival
Outline: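 Ratio derived from survival: compound-dosed mice over vehicle-dosed mice, all bearing a transplantable tumor.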

[1] = dose: 100.0 mg/kg/injection, schedule: Q01DX001 (ip), vehicle: saline
[2] = dose: 200.0 mg/kg/injection, schedule: Q01DX001 (ip), vehicle: saline
[3] = dose: 50.0 mg/kg/injection, schedule: Q04DX003 (ip), vehicle: saline
[4] = dose: 100.0 mg/kg/injection, schedule: Q01DX009 (ip), vehicle: Klucel (hydroxypropylcellulose) (HPC)
[5] = dose: 200.0 mg/kg/injection, schedule: Q01DX009 (ip), vehicle: Klucel (hydroxypropylcellulose) (HPC)
[6] = dose: 400.0 mg/kg/injection, schedule: Q01DX009 (ip), vehicle: Klucel (hydroxypropylcellulose) (HPC)
[7] = dose: 50.0 mg/kg/injection, schedule: Q01DX009 (ip), vehicle: Klucel (hydroxypropylcellulose) (HPC)

Measured: T/C

CNC(=O)NCCN(C)c1ccccc1
inactive: dose: 100.0 mg/kg/injection, schedule: Q04DX002 (ip), vehicle: Klucel (hydroxypropylcellulose) (HPC) 92 % of control | dose: 200.0 mg/kg/injection, schedule: Q04DX002 (ip), vehicle: Klucel (hydroxypropylcellulose) (HPC) 110 % of control | dose: 400.0 mg/kg/injection, schedule: Q04DX002 (ip), vehicle: Klucel (hydroxypropylcellulose) (HPC) 106 % of control

COC(=O)C1CC(=O)C2(C)CCc3c(ccc4cc(OC)ccc34)C12 (stereo not given)
inactive: dose: 100.0 mg/kg/injection, schedule: Q01DX009 (sc), vehicle: steriod suspending solution 103 % of control | dose: 100.0 mg/kg/injection, schedule: Q04DX003 (sc), vehicle: steriod suspending solution 102 % of control | dose: 200.0 mg/kg/injection, schedule: Q01DX009 (sc), vehicle: steriod suspending solution 93 % of control | dose: 200.0 mg/kg/injection, schedule: Q04DX003 (sc), vehicle: steriod suspending solution 86 % of control | dose: 400.0 mg/kg/injection, schedule: Q01DX009 (sc), vehicle: steriod suspending solution 88 % of control | dose: 400.0 mg/kg/injection, schedule: Q04DX003 (sc), vehicle: steriod suspending solution 94 % of control

O=C(COc1ccccc1)NCc1cccc(Cl)c1
inactive: dose: 100.0 mg/kg/injection, schedule: Q01DX009 (ip), vehicle: gum acacia 99 % of control | dose: 200.0 mg/kg/injection, schedule: Q01DX009 (ip), vehicle: gum acacia 92 % of control | dose: 400.0 mg/kg/injection, schedule: Q01DX009 (ip), vehicle: gum acacia 92 % of control

O=C(Nc1ccc(Cl)c(Cl)c1)n1ncc2ccc([N+](=O)[O-])cc21
inactive: [1] 100 % of control | [2] 96 % of control | dose: 400.0 mg/kg/injection, schedule: Q01DX001 (ip), vehicle: saline 100 % of control

C=CCC(C)/C(C)=C(/C#N)C(=O)OCC (stereo not given)
inactive: dose: 75.0 mg/kg/injection, schedule: Q01DX001 (ip), vehicle: other 107 % of control | dose: 150.0 mg/kg/injection, schedule: Q01DX001 (ip), vehicle: other 100 % of control

C=C[C+](CCCC)C(=O)[O-]
inactive: dose: 25.0 mg/kg/injection, schedule: Q01DX009 (ip), vehicle: saline 95 % of control | dose: 50.0 mg/kg/injection, schedule: Q01DX009 (ip), vehicle: saline 92 % of control | [3] 98 % of control | dose: 100.0 mg/kg/injection, schedule: Q01DX001 (ip), vehicle: acetone 96 % of control | dose: 100.0 mg/kg/injection, schedule: Q01DX009 (ip), vehicle: saline 87 % of control | dose: 100.0 mg/kg/injection, schedule: Q04DX003 (ip), vehicle: saline 93 % of control | dose: 150.0 mg/kg/injection, schedule: Q01DX009 (ip), vehicle: saline 101 % of control | dose: 200.0 mg/kg/injection, schedule: Q01DX001 (ip), vehicle: acetone 95 % of control | dose: 225.0 mg/kg/injection, schedule: Q01DX009 (ip), vehicle: saline 98 % of control

C[n+]1c(/C=C/c2ccc(O)c3ccccc23)ccc2ccccc21
inactive: dose: 75.0 mg/kg/injection, schedule: Q01DX001 (ip), vehicle: carboxymethylcellulose (CMC) 92 % of control | dose: 150.0 mg/kg/injection, schedule: Q01DX001 (ip), vehicle: carboxymethylcellulose (CMC) 97 % of control

NC(=O)C(F)(F)C(F)(F)C(F)(F)F
inactive: dose: 50.0 mg/kg/injection, schedule: Q01DX001 (ip), vehicle: Klucel (hydroxypropylcellulose) (HPC) 97 % of control | dose: 100.0 mg/kg/injection, schedule: Q01DX001 (ip), vehicle: Klucel (hydroxypropylcellulose) (HPC) 97 % of control | dose: 200.0 mg/kg/injection, schedule: Q01DX001 (ip), vehicle: Klucel (hydroxypropylcellulose) (HPC) 103 % of control

CC(=O)c1cn(C2CC(O)C(CO)O2)c(=O)[nH]c1=O (stereo not given)
inactive: dose: 50.0 mg/kg/injection, schedule: Q01DX001 (ip), vehicle: saline 117 % of control | dose: 50.0 mg/kg/injection, schedule: Q04DX002 (ip), vehicle: saline 96 % of control | [1] 111 % of control | dose: 100.0 mg/kg/injection, schedule: Q04DX002 (ip), vehicle: saline 105 % of control | [2] 105 % of control | dose: 200.0 mg/kg/injection, schedule: Q04DX002 (ip), vehicle: saline 121 % of control

CC(=O)CC(=O)NCCCc1ccccc1
inactive: dose: 100.0 mg/kg/injection, schedule: Q01DX009 (sc), vehicle: olive oil, sesame oil, peanut oil 101 % of control | dose: 100.0 mg/kg/injection, schedule: Q04DX003 (ip), vehicle: saline with Tween-80 97 % of control | dose: 200.0 mg/kg/injection, schedule: Q01DX009 (sc), vehicle: olive oil, sesame oil, peanut oil 103 % of control | dose: 200.0 mg/kg/injection, schedule: Q04DX003 (ip), vehicle: saline with Tween-80 103 % of control | dose: 400.0 mg/kg/injection, schedule: Q01DX009 (sc), vehicle: olive oil, sesame oil, peanut oil 106 % of control | dose: 400.0 mg/kg/injection, schedule: Q04DX003 (ip), vehicle: saline with Tween-80 97 % of control

CCCCCCCCCCCCCOc1ccc(Sc2ccc([N+](=O)[O-])cc2)cc1
inactive: dose: 400.0 mg/kg/injection, schedule: Q04DX003 (ip), vehicle: Klucel (hydroxypropylcellulose) (HPC) 88 % of control

CC1(C)CN1C1=C(Cl)C(=O)C(N2CC2(C)C)=C(Cl)C1=O
inactive: dose: 1.56 mg/kg/injection, schedule: Q04DX003 (ip), vehicle: saline 92 % of control | dose: 3.12 mg/kg/injection, schedule: Q04DX003 (ip), vehicle: saline 96 % of control | dose: 6.25 mg/kg/injection, schedule: Q04DX003 (ip), vehicle: saline 113 % of control | dose: 12.5 mg/kg/injection, schedule: Q04DX003 (ip), vehicle: saline 101 % of control | dose: 25.0 mg/kg/injection, schedule: Q04DX003 (ip), vehicle: saline 96 % of control | [3] 92 % of control | dose: 75.0 mg/kg/injection, schedule: Q04DX003 (ip), vehicle: saline 104 % of control | dose: 115.0 mg/kg/injection, schedule: Q04DX003 (ip), vehicle: saline 104 % of control | dose: 170.0 mg/kg/injection, schedule: Q04DX003 (ip), vehicle: saline 108 % of control

COc1ccc(C)cc1NC(=O)Nc1ccccc1F
inactive: [4] 97 % of control and 91 % of control | [5] 89 % of control | [6] 92 % of control and 101 % of control

Clc1ccc(NC2=NCCS2)cc1
inactive: [4] 104 % of control | [5] 100 % of control | [6] 93 % of control

CC(=O)Oc1cc2c(cc1N=NN(C)C)[C@H]1CC[C@]3(C)[C@@H](O)CC[C@H]3[C@@H]1CC2
inactive: [7] 95 % of control

CC(C)OC(=O)C1OC1c1ccccc1 (stereo not given)
inactive: dose: 100.0 mg/kg/injection, schedule: Q04DX002 (ip), vehicle: saline with Tween-80 109 % of control | dose: 200.0 mg/kg/injection, schedule: Q04DX002 (ip), vehicle: saline with Tween-80 102 % of control | dose: 400.0 mg/kg/injection, schedule: Q04DX002 (ip), vehicle: saline with Tween-80 109 % of control

O=C(NC(=S)Nc1ccc(F)cc1)c1ccco1
inactive: [7] 94 % of control | [4] 92 % of control | dose: 100.0 mg/kg/injection, schedule: Q04DX003 (ip), vehicle: Klucel (hydroxypropylcellulose) (HPC) 103 % of control | dose: 200.0 mg/kg/injection, schedule: Q04DX003 (ip), vehicle: Klucel (hydroxypropylcellulose) (HPC) 97 % of control

O=C(CF)CCl
inactive: dose: 0.87 mg/kg/injection, schedule: Q01DX009 (ip), vehicle: Klucel (hydroxypropylcellulose) (HPC) 102 % of control | dose: 1.75 mg/kg/injection, schedule: Q01DX009 (ip), vehicle: Klucel (hydroxypropylcellulose) (HPC) 105 % of control | dose: 3.5 mg/kg/injection, schedule: Q01DX009 (ip), vehicle: Klucel (hydroxypropylcellulose) (HPC) 110 % of control | dose: 14.0 mg/kg/injection, schedule: Q04DX003 (ip), vehicle: saline 96 % of control | dose: 28.0 mg/kg/injection, schedule: Q04DX003 (ip), vehicle: saline 112 % of control

OCc1ccc(Cl)cc1
inactive: dose: 100.0 mg/kg/injection, schedule: Q01DX009 (ip), vehicle: saline with Tween-80 102 % of control | dose: 200.0 mg/kg/injection, schedule: Q01DX009 (ip), vehicle: saline with Tween-80 98 % of control | dose: 400.0 mg/kg/injection, schedule: Q01DX009 (ip), vehicle: saline with Tween-80 96 % of control

Reference: PubChem BioAssay AID248 (DTP/NCI, 2004)
